Experimental data as given in ChEMBL document CHEMBL5715954, “Silencing c-Myc translation as a therapeutic strategy through targeting PI3Kδ and CK1ε in hematological malignancies” (Blood, 2017).

Columns and labels:
Set-up in all cases: scale not given: the % may be the effect or the level left
[1] = biological target: CDK9/Cyclin K (Homo sapiens) (UniProt P50750+O75909); assay: Inhibition of human CDK9/cyclin K assessed as enzyme activity at 1 uM using KTFCGTPEYLAPEVRREPRILSEEEQEMFRDFDYIADWC as substrate preincubated for 20 mins followed by [gamma-33P]-ATP addition and measured after 120 mins by radiometric Hot-SpotSM Kinase assay relative to control; assay type: protein-complex assay
[2] = biological target: Casein kinase II subunit alpha' (Homo sapiens) (UniProt P19784); assay: Inhibition of human CK2a2 assessed as enzyme activity at 1 uM using RRRDDDSDDD as substrate preincubated for 20 mins followed by [gamma-33P]-ATP addition and measured after 120 mins by radiometric Hot-SpotSM Kinase assay relative to control
[3] = biological target: T1, Dual specificity tyrosine-phosphorylation-regulated kinase 3 (Homo sapiens) (UniProt O43781); assay: Inhibition of human DYRK3 assessed as enzyme activity at 1 uM using RRRFRPASPLRGPPK as substrate preincubated for 20 mins followed by [gamma-33P]-ATP addition and measured after 120 mins by radiometric Hot-SpotSM Kinase assay relative to control
T1 sequence (whole entry): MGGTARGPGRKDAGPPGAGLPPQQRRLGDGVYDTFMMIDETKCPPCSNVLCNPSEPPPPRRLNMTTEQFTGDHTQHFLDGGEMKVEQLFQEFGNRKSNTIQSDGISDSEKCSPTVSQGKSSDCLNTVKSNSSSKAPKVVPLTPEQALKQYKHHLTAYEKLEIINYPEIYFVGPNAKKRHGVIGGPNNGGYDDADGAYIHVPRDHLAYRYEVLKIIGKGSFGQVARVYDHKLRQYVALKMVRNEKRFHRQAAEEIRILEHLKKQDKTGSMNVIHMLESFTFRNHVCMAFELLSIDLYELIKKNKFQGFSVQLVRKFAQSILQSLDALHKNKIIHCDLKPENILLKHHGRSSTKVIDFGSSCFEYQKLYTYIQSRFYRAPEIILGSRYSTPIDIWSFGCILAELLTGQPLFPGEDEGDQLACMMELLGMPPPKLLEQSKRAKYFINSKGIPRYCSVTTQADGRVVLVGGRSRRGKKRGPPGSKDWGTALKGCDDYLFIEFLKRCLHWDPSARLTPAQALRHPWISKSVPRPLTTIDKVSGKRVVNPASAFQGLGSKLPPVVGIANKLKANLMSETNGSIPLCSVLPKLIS

[4] = biological target: T2, Mitogen-activated protein kinase kinase kinase 2 (Homo sapiens) (UniProt Q9Y2U5); assay: Inhibition of human MEKK2 assessed as enzyme activity at 1 uM using myelin basic protein as substrate preincubated for 20 mins followed by [gamma-33P]-ATP addition and measured after 120 mins by radiometric Hot-SpotSM Kinase assay relative to control
T2 sequence (whole entry): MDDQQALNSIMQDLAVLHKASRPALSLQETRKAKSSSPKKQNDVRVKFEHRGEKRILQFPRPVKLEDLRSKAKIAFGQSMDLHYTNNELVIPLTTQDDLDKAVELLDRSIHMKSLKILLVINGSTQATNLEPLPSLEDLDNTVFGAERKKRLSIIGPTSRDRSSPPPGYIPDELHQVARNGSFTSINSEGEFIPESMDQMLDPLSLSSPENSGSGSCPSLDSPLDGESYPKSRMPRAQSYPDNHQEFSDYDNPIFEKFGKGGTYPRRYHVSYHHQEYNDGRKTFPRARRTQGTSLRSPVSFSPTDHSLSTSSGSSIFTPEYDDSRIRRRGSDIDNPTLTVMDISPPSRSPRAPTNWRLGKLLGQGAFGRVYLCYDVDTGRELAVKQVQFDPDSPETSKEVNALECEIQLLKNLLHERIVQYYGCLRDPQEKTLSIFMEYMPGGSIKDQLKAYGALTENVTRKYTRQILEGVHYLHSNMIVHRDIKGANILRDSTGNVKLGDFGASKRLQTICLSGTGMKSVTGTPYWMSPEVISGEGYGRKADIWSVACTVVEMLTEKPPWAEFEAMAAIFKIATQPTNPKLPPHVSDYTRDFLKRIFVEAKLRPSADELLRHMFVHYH

[5] = biological target: T3, Mitogen-activated protein kinase kinase kinase 7 (Homo sapiens) (UniProt O43318); assay: Inhibition of human TAK1 assessed as enzyme activity at 1 uM using casein as substrate preincubated for 20 mins followed by [gamma-33P]-ATP addition and measured after 120 mins by radiometric Hot-SpotSM Kinase assay relative to control
T3 sequence (whole entry): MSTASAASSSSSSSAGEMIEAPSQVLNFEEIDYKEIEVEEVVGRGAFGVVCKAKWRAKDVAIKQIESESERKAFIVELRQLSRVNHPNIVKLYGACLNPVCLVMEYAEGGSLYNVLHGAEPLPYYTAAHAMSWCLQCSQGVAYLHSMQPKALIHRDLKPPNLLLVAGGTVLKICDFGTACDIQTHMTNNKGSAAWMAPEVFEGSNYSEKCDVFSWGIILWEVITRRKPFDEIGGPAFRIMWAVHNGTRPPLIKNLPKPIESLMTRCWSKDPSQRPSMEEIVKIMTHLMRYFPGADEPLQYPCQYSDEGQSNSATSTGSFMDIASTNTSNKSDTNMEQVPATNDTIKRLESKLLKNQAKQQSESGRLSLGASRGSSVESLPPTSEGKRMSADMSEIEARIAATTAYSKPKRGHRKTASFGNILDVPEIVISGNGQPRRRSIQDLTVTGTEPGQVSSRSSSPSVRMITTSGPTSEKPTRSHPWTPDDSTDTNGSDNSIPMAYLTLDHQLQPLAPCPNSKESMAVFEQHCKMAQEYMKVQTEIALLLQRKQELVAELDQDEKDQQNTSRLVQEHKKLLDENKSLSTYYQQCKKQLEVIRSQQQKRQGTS

Sequence of Casein kinase II subunit alpha' (Homo sapiens) (P19784 whole entry, looked up): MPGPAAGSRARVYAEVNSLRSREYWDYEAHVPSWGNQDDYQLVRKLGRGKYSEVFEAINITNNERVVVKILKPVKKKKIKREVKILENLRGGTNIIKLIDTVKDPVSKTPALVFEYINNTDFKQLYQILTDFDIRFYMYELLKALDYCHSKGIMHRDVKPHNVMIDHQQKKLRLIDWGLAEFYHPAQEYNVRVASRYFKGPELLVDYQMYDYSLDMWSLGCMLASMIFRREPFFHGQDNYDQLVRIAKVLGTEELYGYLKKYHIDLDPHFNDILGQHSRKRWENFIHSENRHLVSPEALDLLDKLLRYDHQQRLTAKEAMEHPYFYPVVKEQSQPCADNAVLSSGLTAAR

| SMILES | Activity [1] [%] | Activity [2] [%] | Activity [3] [%] | Activity [4] [%] | Activity [5] [%] |
| --- | --- | --- | --- | --- | --- |
| C[C@H](Nc1ncnc2nc[nH]c12)c1cc2cccc(Cl)c2c(=O)n1-c1ccccc1 | 93.1 | 99.5 | 97.8 | 94.9 | 98.7 |
| CC[C@H](Nc1ncnc2[nH]cnc12)c1nc2cccc(F)c2c(=O)n1-c1ccccc1 | 91.5 | 91.8 | 96.9 | 101 | 102 |
| CC(C)Oc1ccc(-c2nn([C@@H](C)c3oc4ccc(F)cc4c(=O)c3-c3cccc(F)c3)c3ncnc(N)c23)cc1F [UMBRALISIB] | 88.8 | 86.4 | 96.9 | 108 | 99 |
